Assay results published in US20210405025A1, “IDENTIFYING COMPOUNDS FOR TREATING CANCER AND USE THEREOF” (THE UAB RESEARCH FOUNDATION, priority 2018, published 2021).
Structures can show the parent of a compound that is named as a salt.

These molecules were tested on relapsed AML cells (assay: Drug sensitivity assay, 1,536-well, 3-day culture with individual approved drugs at 10 μM, viability by alamarBlue). Conditions: not given.
Format: cell-based, human
Outline: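 FACS-sorted viable myeloid blasts from thawed AML samples, 4,000-4,500 cells per 5 μL well, cultured in IMDM with 15% BIT, SCF, FLT3L, IL-3, G-CSF. Drugs added per well; after three days percentage of live cells measured to gauge killing.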

With [O-][n+]1ccccc1[S-].[O-][n+]1ccccc1[S-].[Zn+2] [PYRITHIONE ZINC] the “#Cases >70% cell death” value was 7.

Same assay, conditions: number of relapsed AML cases out of 18 tested with >70% cell death; 10 μM, 3-day culture

CC(=O)OCC(=O)[C@@]12OC3(CCCC3)O[C@@H]1C[C@H]1[C@@H]3CCC4=CC(=O)C=C[C@]4(C)[C@@]3(F)[C@@H](O)C[C@@]12C [AMCINONIDE] and CN1CCN(c2ncc(-c3cc(Cl)cc(Cl)c3Cl)c(N)n2)CC1 [SIPATRIGINE] are the same in “#Cases >70% cell death” value: 1 for the first, 1 for the second.

C[C@H]1COc2c(C3(N)CC3)c(F)cc3c(=O)c(C(=O)O)cn1c23 [PAZUFLOXACIN] and CCCOc1cc(N)ccc1C(=O)OCCN(CC)CC [PROPOXYCAINE HYDROCHLORIDE] are the same in “#Cases >70% cell death” value: 1 for the first, 1 for the second.

Going from CCCNCC(O)COc1ccccc1C(=O)CCc1ccccc1 (stereo not shown) [PROPAFENONE] to CCCCOc1ccc(CC(=O)NO)cc1 [BUFEXAMAC], the “#Cases >70% cell death” value rises from 1 to 9.

Going from CC(=O)[C@]1(O)Cc2c(O)c3c(c(O)c2[C@@H](O[C@H]2C[C@H](N)[C@H](O)[C@H](C)O2)C1)C(=O)c1ccccc1C3=O [IDARUBICIN] to C/C=C(\C)C(=O)N[C@@H](c1ccccc1)[C@@H](O)C(=O)O[C@H]1C[C@@]2(O)[C@@H](OC(=O)c3ccccc3)[C@@H]3[C@]4(OC(C)=O)CO[C@@H]4C[C@H](O)[C@@]3(C)C(=O)[C@H](OC(C)=O)C(=C1C)C2(C)C [CEPHALOMANNINE], the “#Cases >70% cell death” value falls from 18 to 7.

Going from ABAMECTIN to N#CC[C@H](C1CCCC1)n1cc(-c2ncnc3[nH]ccc23)cn1 [RUXOLITINIB], the “#Cases >70% cell death” value falls from 18 to 6.

First: O=c1[nH]c(=O)n([C@H]2C[C@H](O)[C@@H](CO)O2)cc1F [FLOXURIDINE]
Second: COCCn1c2c([n+](Cc3cnccn3)c1C)C(=O)c1ccccc1C2=O [YM-155]
The “#Cases >70% cell death” value of the first is lower: 8 for the first, 18 for the second.

First: CCN(CC)CCNc1ccc(CO)c2sc3ccccc3c(=O)c12 [HYCANTHONE]
Second: CCOc1ccc2nc(S(N)(=O)=O)sc2c1 [ETHOXZOLAMIDE]
The “#Cases >70% cell death” value of the first is higher: 9 for the first, 2 for the second.

First: CCc1ccc(CCOc2ccc(CC3SC(=O)NC3=O)cc2)nc1 (stereo not shown) [PIOGLITAZONE]
Second: CN[C@@H]1[C@@H](O)[C@@H](O[C@@H]2[C@@H](O)[C@H](O[C@H]3OC(CN)=CC[C@H]3N)[C@@H](N)C[C@H]2N)OC[C@]1(C)O [SISOMICIN]
The “#Cases >70% cell death” value of the first is lower: 8 for the first, 10 for the second.

Compared with CC(C)OC(=O)C(C)(C)Oc1ccc(C(=O)c2ccc(Cl)cc2)cc1 [FENOFIBRATE], CN1CCc2cccc3c2[C@H]1Cc1ccc(O)c(O)c1-3 [APOMORPHINE] is higher in “#Cases >70% cell death” value: 3 for the first, 5 for the second.

Going from COc1cc(C(=O)NCc2ccc(OCCN(C)C)cc2)cc(OC)c1OC [TRIMETHOBENZAMIDE HYDROCHLORIDE] to CCn1cc(-c2ccnc3[nH]c(-c4cccc(CN(C)C)c4)cc23)c(-c2ccc(NC(=O)N(C)C)cc2)n1 [GSK1070916], the “#Cases >70% cell death” value rises from 1 to 11.

Going from CN(C)c1ccc(C(=C2C=CC(=[N+](C)C)C=C2)c2ccc(N(C)C)cc2)cc1 [GENTIAN VIOLET] to EXATECAN MESYLATE, the “#Cases >70% cell death” value falls from 18 to 12.

Going from CN(C)/N=N/c1[nH]cnc1C(N)=O [DACARBAZINE] to CS(=O)(=O)CCNCc1ccc(-c2ccc3ncnc(Nc4ccc(OCc5cccc(F)c5)c(Cl)c4)c3c2)o1 [LAPATINIB], the “#Cases >70% cell death” value falls from 14 to 2.

First: APILIMOD MESYLATE
Second: C[C@@H](Oc1cc(-n2cnc3ccc(CN4CCN(C)CC4)cc32)sc1C(N)=O)c1ccccc1C(F)(F)F [GSK 461364]
The “#Cases >70% cell death” value of the first is lower: 4 for the first, 9 for the second.

First: CC[C@H](C)C(=O)O[C@H]1CCC=C2C=C[C@H](C)[C@H](CC[C@@H]3C[C@@H](O)CC(=O)O3)[C@H]21 [MEVASTATIN]
Second: CN1CCC[C@@H]1CCO[C@](C)(c1ccccc1)c1ccc(Cl)cc1 [CLEMASTINE]
The “#Cases >70% cell death” value of the first is higher: 7 for the first, 1 for the second.

Going from CC1(C)O[C@@H]2C[C@H]3[C@@H]4C[C@H](F)C5=CC(=O)CC[C@]5(C)[C@H]4[C@@H](O)C[C@]3(C)[C@]2(C(=O)CO)O1 [FLURANDRENOLIDE] to [H]/N=C(\N/C(=N/[H])NCCCCCCNC(=N)NC(=N)Nc1ccc(Cl)cc1)Nc1ccc(Cl)cc1 [CHLORHEXIDINE DIHYDROCHLORIDE], the “#Cases >70% cell death” value falls from 18 to 11.

Going from Clc1ccc(CSC(Cn2ccnc2)c2ccc(Cl)cc2Cl)cc1 (stereo not shown) [SULCONAZOLE NITRATE] to CCCCCCCCOc1ccccc1C(=O)Nc1ccc(C(=O)OCC[N+](C)(CC)CC)cc1 [OTILONIUM BROMIDE], the “#Cases >70% cell death” value falls from 5 to 4.

Going from CNC(=O)c1cc(Oc2ccc(NC(=O)Nc3ccc(Cl)c(C(F)(F)F)c3)cc2)ccn1 [SORAFENIB] to C[C@@H](Oc1cc(-c2cnn(C3CCNCC3)c2)cnc1N)c1c(Cl)ccc(F)c1Cl [CRIZOTINIB], the “#Cases >70% cell death” value rises from 9 to 10.

Compared with NC[C@H]1O[C@H](O[C@H]2[C@H](O)[C@@H](O[C@H]3O[C@H](CO)[C@@H](O)[C@H](N)[C@H]3O)[C@H](N)C[C@@H]2N)[C@H](N)C[C@@H]1O [TOBRAMYCIN], CCOc1ccc2nc3cc(N)ccc3c(N)c2c1 [ETHACRIDINE LACTATE] is higher in “#Cases >70% cell death” value: 1 for the first, 2 for the second.

Going from C#Cc1cccc(Nc2ncnc3cc(OCCOC)c(OCCOC)cc23)c1 [ERLOTINIB] to CCOC(=O)/C=C(C)/C=C/C=C(C)/C=C/c1c(C)cc(OC)c(C)c1C [ETRETINATE], the “#Cases >70% cell death” value falls from 6 to 1.

First: CC(C)C(=O)Nc1ccc([N+](=O)[O-])c(C(F)(F)F)c1 [FLUTAMIDE]
Second: N#C[C@@H]1C[C@@H]2C[C@@H]2N1C(=O)[C@@H](N)C12CC3CC(CC(O)(C3)C1)C2 [SAXAGLIPTIN]
The “#Cases >70% cell death” value of the first is higher: 2 for the first, 1 for the second.

Going from N#CCNC(=O)c1ccc(-c2ccnc(Nc3ccc(N4CCOCC4)cc3)n2)cc1 [CYT387] to CCNC1(C(N)=O)CCN(c2ncnc3c2nc(-c2ccccc2Cl)n3-c2ccc(Cl)cc2)CC1 [CP-945], the “#Cases >70% cell death” value falls from 14 to 1.

Going from O=C(/C=C/c1ccc(CN(CCO)CCc2c[nH]c3ccccc23)cc1)NO [LAQ-824] to C[C@]12CC[C@@H]3c4ccc(O)cc4CC[C@H]3[C@@H]1CC[C@@H]2OC(=O)CCC1CCCC1 [ESTRADIOL CYPIONATE], the “#Cases >70% cell death” value falls from 18 to 2.

Going from CN[C@H](C(=O)N[C@H](C(=O)N(C)[C@H](/C=C(\C)C(=O)O)C(C)C)C(C)(C)C)C(C)(C)c1ccccc1 [TALTOBULIN] to Cc1ccc(C(=O)N(CCCN)[C@@H](c2nc3cc(Cl)ccc3c(=O)n2Cc2ccccc2)C(C)C)cc1 [ISPINESIB MESYLATE], the “#Cases >70% cell death” value falls from 14 to 2.

First: Nc1nc(NC2CC2)c2ncn([C@H]3C=C[C@@H](CO)C3)c2n1 [ABACAVIR SULFATE]
Second: CCNC1=Nc2ccc(Cl)cc2C(C)(c2ccccc2)O1 (stereo not shown) [ETIFOXINE]
The “#Cases >70% cell death” value of the first is lower: 1 for the first, 4 for the second.

First: OCCN1CCN(CCCN2c3ccccc3Sc3ccc(C(F)(F)F)cc32)CC1 [FLUPHENAZINE]
Second: CC[C@@H]1/C=C(\C)C[C@H](C)C[C@H](OC)[C@H]2O[C@@](O)(C(=O)C(=O)N3CCCC[C@H]3C(=O)O[C@H](/C(C)=C/[C@@H]3CC[C@H](Cl)[C@H](OC)C3)[C@H](C)[C@@H](O)CC1=O)[C@H](C)C[C@@H]2OC [PIMECROLIMUS]
The “#Cases >70% cell death” value of the first is higher: 3 for the first, 2 for the second.

Going from CCC1=C[C@@H]2CN(C1)Cc1c([nH]c3ccccc13)[C@@](C(=O)OC)(c1cc3c(cc1OC)N(C)[C@H]1[C@@](O)(C(=O)OC)[C@H](OC(C)=O)[C@]4(CC)C=CCN5CC[C@]31[C@@H]54)C2 [VINORELBINE] to Nc1ccc2cc3ccc(N)cc3nc2c1 [PROFLAVINE HEMISULFATE], the “#Cases >70% cell death” value falls from 16 to 3.

Compared with Nc1ncn([C@@H]2O[C@H](CO)[C@@H](O)[C@H]2O)c(=O)n1 [AZACYTIDINE], Cc1cc(C(C)(C)CC(C)(C)C)ccc1OCCOCC[N+](C)(C)Cc1ccccc1.[Cl-] [METHYLBENZETHONIUM CHLORIDE] is higher in “#Cases >70% cell death” value: 8 for the first, 16 for the second.

CC1=C(C)C(=O)C(C(CCCCCC(=O)O)c2ccccc2)=C(C)C1=O (stereo not shown) [SERATRODAST] and O=C(O)[C@]1(Cc2cccc(Nc3nccs3)n2)CC[C@@H](Oc2cccc(Cl)c2F)CC1 [VX-689 (MK5108)] are the same in “#Cases >70% cell death” value: 1 for the first, 1 for the second.

First: COc1cc(/C=C/C(=O)CC(=O)/C=C/c2ccc(O)c(OC)c2)ccc1O [CURCUMIN]
Second: CC(=O)Nc1ccc(C(=O)Nc2ccccc2N)cc1 [TACEDINALINE]
The “#Cases >70% cell death” value of the first is lower: 1 for the first, 4 for the second.

First: CCCCCCCCCCCC[N+](C)(C)CCOc1ccccc1 [DOMIPHEN BROMIDE]
Second: Cn1cncc1[C@@](N)(c1ccc(Cl)cc1)c1ccc2c(c1)c(-c1cccc(Cl)c1)cc(=O)n2C [TIPIFARNIB]
The “#Cases >70% cell death” value of the first is higher: 16 for the first, 7 for the second.

First: CC[C@@H]([C@H](C)O)n1ncn(-c2ccc(N3CCN(c4ccc(OC[C@@H]5CO[C@@](Cn6cncn6)(c6ccc(F)cc6F)C5)cc4)CC3)cc2)c1=O [POSACONAZOLE]
Second: CC[C@]1(O)C[C@H]2CN(CCc3c([nH]c4ccccc34)[C@@](C(=O)OC)(c3cc4c(cc3OC)N(C=O)[C@H]3[C@@](O)(C(=O)OC)[C@H](OC(C)=O)[C@]5(CC)C=CCN6CC[C@]43[C@@H]65)C2)C1 [VINCRISTINE]
The “#Cases >70% cell death” value of the first is lower: 6 for the first, 14 for the second.

With CCCCC(CC)COC(=O)C(C#N)=C(c1ccccc1)c1ccccc1 (stereo not shown) [OCTOCRYLENE] the “#Cases >70% cell death” value was 1.
